Experimental data: US20190015423A1, “REGULATION OF GENE EXPRESSION BY MODULATING PRIMARY CILIA LENGTH” (THE TRUSTEES OF COLUMBIA UNIVERSITY IN THE CITY OF NEW YORK, priority 2016, published 2019)
Structures can show the parent of a compound that is named as a salt. Where a SMILES comes first, the peptide text is derived from it.

Tested on: MLO-Y4 osteocytes
Assay: High-throughput drug screening of primary cilia length and incidence
Type: cell-based
Details: not given
Description: MLO-Y4 osteocytes were maintained on collagen I-coated dishes in MEMα (Life_Technologies) supplemented with 5% fetal bovine serum (FBS), 5% calf serum (CS), and 1% penicillin/streptomycin (P/S) at 37° C. and 5% CO2. Osteocytes were then seeded onto 384-well collagen-coated plates for 72 hours before fixation. […] These libraries include Tocris, Sigma LOPAC, Selleck Chemical, Prestwick, and Spectrum commercially available compound libraries. All cell seeding and plate handling was performed with the Perkin Elmer cell:explorer workstation.
Cells were fixed in 4% paraformaldehyde and permeabilized with 0.1% Triton-X 100 (Sigma). 10% goat serum (vendor) was used for blocking. Cilia were stained using a monoclonal antibody against acetylated α-tubulin (1:20) from a C3B9 hybridoma cell line, and visualized with A F488 (1:1000, ThermoFisher). Nuclei were visualized with Hoechst. Cells were imaged using a GE INCell 2000 high-throughput imager at 40× magnification. 4 fields of view were taken per well.
Each pair of nuclei and cilia images was first analyzed individually, then the entire population was examined to evaluate each compound's effect on cilia length and incidence. A custom MATLAB script was developed to perform all image analysis. This script first utilizes an enhanced implementation of a watershed transform, which is a segmentation tool which enables detection of similarly shaped overlapping particles in noisy images by the procedural whittling down of pixels found close to the edge of such particles. The augmentation of the algorithm incorporates thresholding for noise removal based on signal intensity and object size, nuclei dilation to exclude non-cellular artifacts, as well as skeletonization of cilia to quantify length. The results of the analysis are number of nuclei, number of cilia, and average cilia length in each image.
Compounds were selected based on deviation from the population mean. Each well was normalized to vehicle control images on each plate, allowing the establishment of a normalized population mean. Hits were chosen based on compounds whose triplicate mean was furthest (based on standard deviation away) from the population mean. […] Compounds were classified based on mechanism of action.
To identify compounds that modulate primary cilia formation a high-throughput platform was developed to automate cell culture, staining, imaging, and analysis, as shown in schematic form in FIG. 18. […] Cells were cultured on 384-well plates, and treated with small molecules with known biologic activity, enabling classification of mechanisms of action. Drug treatment was applied for 16 hours at 10 μM concentration, performed in triplicate, before fixation and immunostaining of primary cilia. Cells were then imaged using the GE INCell 2000 High Content Analyzer, capturing 4 fields of view per well at 40× magnification. Additionally, each plate contains 8 wells of DMSO vehicle control.
A MATLAB script was developed to detect and analyze changes in ciliogenesis. […] A representative exemplary image (FIG. 19A) is cropped to better display features, scale bar represents 30 μm. A custom MATLAB script was used to identify nuclei and cilia for analysis (FIG. 19B). […] Objects are further filtered based on size and signal intensity.
Cilia length and incidence for each field of view were normalized to vehicle control on that individual plate. This allowed development of a normalized population average and standard deviation. […] To control for toxic effects only small molecules with at least 40% viability, based on number of nuclei versus control, were selected as hits. Furthermore, compounds repeated between multiple libraries eliciting the same effect on cilia length or incidence were excluded, such that only one of the repeated compounds was selected as a hit.

Row | SMILES | Average Length SD Away
1 | CC(C)(C)CC(C)(C)c1ccc(OCCOCC[N+](C)(C)Cc2ccccc2)cc1 [Benzethonium chloride] | 5.179 SD

Same assay, conditions: 10 μM, 16 hours, triplicate; normalized to vehicle control; standard deviation away from the population average

Row | SMILES | Average Length SD Away | Average Incidence SD Away
2 | CCCCC/N=c1\ccn(Cc2ccccc2)c2ccccc12 [CP 339818 hydrochloride] | 1.715 SD | 
3 | O=C(/C=C/c1ccccc1)c1ccc(O[C@@H]2O[C@H](CO)[C@@H](O)[C@H](O)[C@H]2O)cc1O [2 4 -DIHYDROXYCHALCONE 4 -GLUCOSIDE] | 1.598 SD | 
4 | CC(=O)O[C@]1(C(C)=O)CC[C@H]2[C@@H]3C[C@H](C)C4=CC(=O)CC[C@]4(C)[C@H]3CC[C@@]21C [Medroxyprogesterone acetate] |  | 2.659 SD
5 | COc1c(C)c2c(c(O)c1C/C=C(\C)CCC(=O)OCCN1CCOCC1)C(=O)OC2 [Mycophenolate mofetil (CellCept), Mycophenolate mofetil] | 1.579 SD | 1.654 SD
6 | C#CCC(Cc1cnc2nc(N)nc(N)c2n1)c1ccc(C(=O)N[C@@H](CCC(=O)O)C(=O)O)cc1 (some centres unmarked) [Pralatrexate(Folotyn), Pralatrexate] | 2.105 SD | 2.193 SD
7 | COc1cc(OC)c(C=C2C(O)=Nc3ccccc32)c(OC)c1 [IC 261] | 1.651 SD | 
8 | N#CC(c1ccc(Cl)cc1)c1c(Cl)cc(-n2ncc(=O)[nH]c2=O)cc1Cl (centres unmarked) [Diclazuril] |  | 1.668 SD
9 | Cc1nn(-c2ccccc2)c(C)c1/C=N/N1CCN(Cc2ccccc2)CC1 [SANT-1] | 1.811 SD | 
10 | CC1(C)C(=O)C=C[C@]2(C)[C@H]3CC[C@@]4(C)[C@H](c5ccoc5)OC(=O)[C@H]5O[C@]54[C@]3(C)C(=O)C[C@@H]12 [DEACETOXY-7-OXOGEDUNIN] | 1.843 SD | 
11 | Cc1cccc([C@H](C)c2cnc[nH]2)c1C [Dexmedetomidine HCl (Precedex), Dexmedetomidine HCl] |  | 2.924 SD
12 | CN1CCN2c3ncccc3Cc3ccccc3C2C1 (centres unmarked) [Mirtazapine (Remeron Avanza), Mirtazapine] |  | 1.681 SD
13 | CN(CCOc1ccc(C[C@H](Nc2ccccc2C(=O)c2ccccc2)C(=O)O)cc1)c1ccccn1 [GW 1929] | 1.65 SD | 
14 | CC(=O)O[C@H]1C[C@@H](OC(C)=O)C(C)(C)[C@@H]2C[C@@H](OC(C)=O)[C@]3(C)[C@H](CC[C@@]4(C)[C@H](c5ccoc5)OC(=O)[C@H]5O[C@@]534)[C@@]12C [KHIVORIN] | 1.723 SD | 
15 | COc1ccc2oc(-c3ccccc3OC)cc(=O)c2c1 [62 -DIMETHOXYFLAVONE] | 1.745 SD | 
16 | CCC[S+]([O-])c1ccc2[nH]c(NC(=O)OC)nc2c1 (centres unmarked) [Albendazole Oxide (Ricobendazole), Albendazole Oxide] |  | 2.017 SD
17 | CC(=O)O[C@H]1C[C@@H](OC(C)=O)C(C)(C)[C@@H]2C[C@@H](OC(C)=O)[C@@]3(C)C4=CC(=O)O[C@@H](c5ccoc5)[C@]4(C)CC[C@@H]3[C@@]12C [DEOXYKHIVORIN] | 1.681 SD | 
18 | COc1cc2c(cc1C(F)(F)F)N(C(=O)Nc1cc(F)cc(-c3cccnc3)c1)CC2 [SB 228357] | 2.332 SD | 
19 | Cn1ccc2cc3c(cc21)CCN3C(=O)Nc1cccnc1 [SB 206553 hydrochloride] | 1.704 SD | 
20 | CC(=O)O[C@@]12CO[C@@H]1C[C@H](O)[C@@]1(C)C(=O)[C@H](O)C3=C(C)[C@@H](OC(=O)[C@H](O)[C@@H](NC(=O)OC(C)(C)C)c4ccccc4)C[C@@](O)([C@@H](OC(=O)c4ccccc4)[C@H]21)C3(C)C [Docetaxel] | 3.416 SD | 
21 | CC(=O)Nc1ccccc1 [Acetanilide (Antifebrin), Acetanilide] |  | 1.696 SD
22 | C[C@@H](CN1CCC(n2c(=O)[nH]c3cc(Cl)ccc32)CC1)NC(=O)c1ccc2ccccc2c1 [VU 0155069] | 1.618 SD | 
23 | CC(C)NCC(O)COc1ccc(CCOCC2CC2)cc1 (centres unmarked) [Betaxolol hydrochloride (Betoptic), Betaxolol hydrochloride] |  | 1.631 SD
24 | O=c1[nH]c(=O)n([C@H]2C[C@H](O)[C@@H](CO)O2)cc1F [Floxuridine] | 1.672 SD | 1.58 SD
25 | O=c1[nH]c(=O)n([C@H]2C[C@H](O)[C@@H](CO)O2)cc1I [Idoxuridin] |  | 1.798 SD
26 | COC(=O)[C@H](Cc1ccccc1)NC(=O)[C@@H](N)CC(=O)O [Aspartame] (H-Asp-Phe-OMe) |  | 1.732 SD

Row | SMILES | Average Length SD Away | Average Incidence SD Away
27 | CC(C)OC(=O)C(C)(C)Oc1ccc(C(=O)c2ccc(Cl)cc2)cc1 [Fenofibrate (Tricor Trilipix), Fenofibrate] |  | 2.95 SD
28 | CC(C)c1nc(N(C)S(C)(=O)=O)nc(-c2ccc(F)cc2)c1/C=C/[C@@H](O)C[C@@H](O)CC(=O)O [Rosuvastatin calcium (Crestor), Rosuvastatin calcium] |  | 1.644 SD
29 | COC(=O)C1=CO[C@@H](O[C@@H]2O[C@H](CO)[C@@H](O)[C@H](O)[C@H]2O)[C@@H]2C(CO)=CC[C@H]12 [Geniposide] |  | 4.335 SD
30 | CCN(CC)CCNc1ccc(CO)c2sc3ccccc3c(=O)c12 [HYCANTHONE] | 2.896 SD | 
31 | CCCOc1ccc(C(=O)OCCN(CC)CC)cc1N [Proparacaine HCl] |  | 1.523 SD
32 | CCCCc1oc2ccccc2c1C(=O)c1cc(I)c(OCCN(CC)CC)c(I)c1 [Amiodarone HCl] |  | 3.38 SD
33 | C[S+]([O-])c1ccc(-c2nc(-c3ccc(F)cc3)c(-c3ccncc3)[nH]2)cc1 (centres unmarked) [SB 203580] | 1.797 SD | 
34 | O=c1[nH]c(=O)n([C@H]2C[C@H](O)[C@@H](CO)O2)cc1C(F)(F)F [Trifluridine (Viroptic), Trifluridine] | 1.773 SD | 2.117 SD
35 | Nc1nc(N)c2nc(-c3ccccc3)c(N)nc2n1 [Triamterene] | 2.775 SD | 
36 | CN(Cc1cnc2nc(N)nc(N)c2n1)c1ccc(C(=O)N[C@@H](CCC(=O)O)C(=O)O)cc1 (racemic) [Amethopterin (RS)] | 2.927 SD | 
37 | COc1cc2c(cc1OC)C1C(=O)c3c(cc4c(c3O)C=CC(C)(C)O4)OC1CO2 (stereo not drawn) [beta-TOXICAROL] | 1.664 SD | 
38 | CC(C)NCC(O)c1ccc(O)c(O)c1 (centres unmarked) [Isoprenaline hydrochloride] |  | 1.623 SD
39 | CCCc1cc(=O)[nH]c(=S)[nH]1 [Propylthiouracil] |  | 1.659 SD
40 | C[C@@H]1CC(=O)NN=C1c1ccc(NN=C(C#N)C#N)cc1 [Levosimendan] |  | 1.52 SD
41 | COc1ccc2cccc(N3CCN(CCNC(=O)c4ccc(F)cc4)CC3)c2c1.Cl [S 14506 hydrochloride] | 1.54 SD | 
42 | COc1cc(C(C)=O)ccc1OCCCN1CCC(c2noc3cc(F)ccc23)CC1 [Iloperidone (Fanapt), Iloperidone] |  | 1.775 SD
43 | CCc1nc(N)nc(N)c1-c1ccc(Cl)cc1 [PYRIMETHAMINE] | 3.194 SD | 1.762 SD
44 | COc1cc(/C=C/C(=O)N2CCC=CC2=O)cc(OC)c1OC [Piperlongumine] | 3.198 SD | 
45 | S=c1nc[nH]c2nc[nH]c12 [MERCAPTOPURINE] | 1.722 SD | 
46 | c1ccc(-c2[nH]ncc2-c2ccnc3ccccc23)nc1 [LY 364947] |  | 1.591 SD
47 | CN1Cc2ccccc2[C@@H]2c3cccc4[nH]cc(c34)C[C@H]21 [CY 208-243] | 2.567 SD | 
48 | NC(=O)c1ccc(N)nc1 [6-AMINONICOTINAMIDE] | 2.008 SD | 
49 | CCOC(=O)N1CCC(=C2c3ccc(Cl)cc3CCc3cccnc32)CC1 [Loratidine] | 2.261 SD | 
50 | Cc1cc(NS(=O)(=O)c2ccc(N)cc2)no1 [Sulfamethoxazole] |  | 1.767 SD
51 | CCn1cc(C(=O)O)c(=O)c2cc(F)c(N3CCN(C)CC3)cc21 [Pefloxacin mesylate] |  | 1.682 SD
